Measured values taken from ChEMBL document CHEMBL3045738, “Control of Greenhouse Whitefly (Trialeurodes vaporariorum) Using Visually Attractive Targets Impregnated with Pyriproxyfen” (J Pestic Sci, 2005).
Activity calls are given as the source filed them. The rule behind the calls is not given here.

What was measured:
[1] = test system: Trialeurodes vaporariorum; assay: Insecticidal activity against Trialeurodes vaporariorum in bean plant leaf up to 50 days by glasshouse method; type: functional, organism-based
[2] = test system: Trialeurodes vaporariorum; assay: Insecticidal activity against Trialeurodes vaporariorum in ten-leaf stage of bean plant after 10 to 35 days; type: functional, organism-based

`CC(COc1ccc(Oc2ccccc2)cc1)Oc1ccccn1` (racemic) was tested, and the Activity [1] was “Active” and the Activity [2] was “Active”.
